Test results: PubChem BioAssay (NCI)
“And” between values parts separate entries of the source, which are not always exact repeats. Identical values can stand only once.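 Test compounds were applied to cells in 96-well plates for 48 hours at 5 doses. Here, GI50 denotes the concentration required for 50% inhibition of growth. TGI marks complete inhibition of growth.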

Assays:
Assay in all cases: inhibition of tumour cell growth, NCI panel, 48 h
[1] = test system: T-47D breast
[2] = test system: OVCAR-3 ovarian
[3] = test system: MDA-MB-231 breast
[4] = test system: NCI-H23 lung
[5] = test system: MOLT-4 leukemia
[6] = test system: RPMI-8226 leukemia
[7] = test system: HOP-62 NSCLC
[8] = test system: SK-MEL-5 melanoma
[9] = test system: HL-60(TB) leukemia
[10] = test system: UACC-257 melanoma

SMILES | GI50 [1] | TGI [1] | GI50 [2] | TGI [2] | GI50 [3] | TGI [3] | GI50 [4] | TGI [4] | GI50 [5] | TGI [5] | GI50 [6] | TGI [6] | GI50 [7] | TGI [7] | GI50 [8] | TGI [8] | GI50 [9] | TGI [9] | GI50 [10] | TGI [10]
C[C@H]1c2ccccc2CN1CCCOc1cc2c(cc1OCC1CC1)C1(CCCC1)C(N)=N2 | 0.99 µM | 2.5 µM | 1.91 µM | 6.86 µM | 1.44 µM | 5.21 µM | 3.26 µM | 10.3 µM | 1.4 µM | 4.93 µM | 1.01 µM | 3.13 µM | 3.67 µM | 10.2 µM | 0.912 µM | 1.69 µM | 1.21 µM | 3.16 µM | 0.999 µM | 2.13 µM
O=C1CCC(N2C(=O)c3cccc(NCCCC4CCN(CCNC(=O)c5cc6c(o5)C(=O)c5ccccc5C6=O)CC4)c3C2=O)C(=O)N1 (stereo not given) | 1.82 µM | 11 µM | 0.218 µM | 0.761 µM | 0.67 µM | 6.83 µM | 0.159 µM | 0.399 µM | 1.93 µM | 13.8 µM | 1.7 µM | 20.9 µM | 1.44 µM | 2.86 µM | 0.163 µM | 0.303 µM | 0.858 µM | 6.16 µM | 0.632 µM | 1.87 µM
CN(c1ccc(C#N)c(Cl)c1)C1CCC(NC(=O)c2ccc(N3CCN(C4CN(c5ccc6c(c5)C(=O)N(C5CCC(=O)NC5=O)C6=O)C4)CC3)cc2)CC1 (stereo not given) | > 100 µM | > 100 µM | > 100 µM | > 100 µM | 18.9 µM | 41.6 µM | > 100 µM | > 100 µM | > 100 µM | > 100 µM | > 100 µM | > 100 µM | > 100 µM | > 100 µM | > 100 µM | > 100 µM | > 100 µM | > 100 µM | > 100 µM | > 100 µM
CCN(CC)C(=S)SSC(=S)N(CC)CC | 15.7 µM and 13 µM | 51.3 µM and 39.3 µM | 15.1 µM and 15.3 µM | 32.5 µM and 29.4 µM | 16.1 µM and 16.7 µM | 32.5 µM and 34.3 µM | 23 µM | > 76.7 µM and 70.1 µM | 17.7 µM and 16 µM | 46.6 µM and 48.5 µM | 13.6 µM and 15 µM | 30.5 µM and 46.6 µM | 33.9 µM and 33.7 µM | > 67.9 µM and 112 µM | 16.6 µM and 14.6 µM | 39.9 µM and 33.5 µM | 25.9 µM and 22.4 µM | 56.3 µM and 52.5 µM | 35.4 µM and 34.3 µM | > 88.2 µM and 148 µM
NS(=O)(=O)c1cccc(-c2ccc3c(NC(=O)C4CC4)n[nH]c3c2)c1 | 13.3 µM | > 25 µM | 6.71 µM | > 17.6 µM | 25 µM | > 25 µM | > 25 µM | > 25 µM | 19.2 µM | > 25 µM | > 25 µM | > 25 µM | > 14.2 µM | 24.7 µM | > 14.7 µM | > 25 µM | 8.31 µM | > 22.5 µM | > 18.1 µM | > 25 µM
C=CCn1c(=O)c2cnc(Nc3ccc(N4CCN(C)CC4)cc3)nc2n1-c1cccc(C(C)(C)O)n1 | 2.52 µM and 0.644 µM | > 100 µM | 0.241 µM and 0.331 µM | 0.9 µM and 1.47 µM | 1.33 µM and 0.624 µM | 27.4 µM and > 7.83 µM | 0.218 µM and 0.295 µM | 1.27 µM and > 4.86 µM | 0.348 µM and 0.333 µM | 18.1 µM and 4.26 µM | 1.65 µM and 1.52 µM | 5.61 µM and 6.22 µM | 1.4 µM and 0.802 µM | 14.4 µM and > 10 µM | 0.231 µM and 0.442 µM | 1.04 µM and 7.76 µM | 0.272 µM and 0.325 µM | 1.35 µM and > 3.11 µM | 0.675 µM and > 4.69 µM | 18.7 µM and > 10 µM
O=C1CSC(c2ccccc2O)N1c1nnc(Cn2ccnc2)o1 (stereo not given) | 6.11 µM | 27.2 µM | 3.04 µM | 16.4 µM | 6.25 µM | 71.4 µM | 14.9 µM | 65 µM | 5.23 µM | > 100 µM | 3.52 µM | 24.4 µM | 17.6 µM | > 100 µM | 7.4 µM | 20.2 µM | 1.46 µM | > 100 µM | 16 µM | 40.6 µM
O=c1c(-c2ccccc2)coc2cc(OC/C(=N/O)c3ccc(F)cc3)ccc12 | 7.87 µM | 68.5 µM | 19.7 µM | 47.4 µM | 19.6 µM | 43.4 µM | 19.3 µM | 42.1 µM | 24 µM | > 100 µM | 18.8 µM | 59.7 µM | 27 µM | 53.5 µM | 11.6 µM | 23.9 µM | 15 µM | 89.7 µM | 10.2 µM | 27.3 µM
CC1=C(C(=O)Nc2ccc(F)c(Cl)c2)C(c2ccccc2O)NC(=O)N1 (stereo not given) | 42.4 µM | > 100 µM | 65.4 µM | > 100 µM | 27.4 µM | > 100 µM | > 100 µM | > 100 µM | – | – | 46.1 µM | > 100 µM | > 100 µM | > 100 µM | 41.2 µM | > 100 µM | 59.6 µM | > 100 µM | > 100 µM | > 100 µM
COc1cc2c(cc1-c1coc3cc(OCC=C(C)C)ccc3c1=O)OCO2 | – | > 100 µM | – | > 100 µM | – | 65.6 µM | – | > 100 µM | – | 45.2 µM | – | 66 µM | – | 89.1 µM | – | 36.9 µM | – | 35.7 µM | – | > 100 µM
Cc1oc2c(c1C(=O)N1CC[C@@H](N)C1)C(=O)c1c(c(O)c3ccccc3c1O)C2=O | 0.863 µM | 7.86 µM | 2.68 µM | 9.5 µM | 2.26 µM | 9.06 µM | 2.61 µM | 12.2 µM | 0.304 µM | 1.96 µM | 2.51 µM | 12.6 µM | 0.51 µM | 4.11 µM | 3.97 µM | 16.5 µM | 1.17 µM | 4.31 µM | – | –
Cc1c2ccncc2c(C)c2c1c1cc(CO)ccc1n2C | 0.268 µM | 3.52 µM | 0.498 µM | 2.32 µM | 0.456 µM | 2.96 µM | 0.429 µM | 2.66 µM | 0.368 µM | 2.13 µM | 0.425 µM | 2.28 µM | 0.335 µM | 2.05 µM | 1.08 µM | 2.7 µM | 0.854 µM | 5.6 µM | – | –
COc1ccc(-c2ccc(/C=N/n3c(COc4ccccc4Cl)n[nH]c3=S)o2)c([N+](=O)[O-])c1 | 21.8 µM | 86.2 µM | 17.7 µM | 46.7 µM | 46.7 µM | > 100 µM | 18.5 µM | 41.8 µM | – | – | 24.9 µM | 92.9 µM | 26.7 µM | 69.3 µM | – | – | 22.4 µM | 56.4 µM | 28.4 µM | 63.5 µM
